Results reported in patent US9481876B2, “Cathepsin L inhibitors and probes comprising vinyl sulfonate moiety and methods of using same” (Research Foundation of the City University of New York, priority 2014, dated 2016).
“Also recorded” adds a separate entry of the source.

Experiments:
[1] = target: T1, recombinant human cathepsin L (Homo sapiens, UniProt P07711); test: initial inhibitory screen of precursors against recombinant human cathepsin L; type: biochemical; conditions: 10 μM
T1 sequence (P07711 18-333 limits assumed): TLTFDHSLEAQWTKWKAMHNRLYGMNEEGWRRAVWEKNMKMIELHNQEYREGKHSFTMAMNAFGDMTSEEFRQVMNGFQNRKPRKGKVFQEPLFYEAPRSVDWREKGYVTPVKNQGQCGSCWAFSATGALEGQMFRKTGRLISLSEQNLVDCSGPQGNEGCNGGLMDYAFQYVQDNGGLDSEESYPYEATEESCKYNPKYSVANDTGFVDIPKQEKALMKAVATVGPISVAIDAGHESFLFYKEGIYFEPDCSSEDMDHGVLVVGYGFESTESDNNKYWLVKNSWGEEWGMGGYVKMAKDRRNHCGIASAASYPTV
Method: An initial inhibitory screen of various precursors (see FIG. 3A and FIG. 3B) was performed at 10 μM against recombinant human cathepsin L. The percent inhibition of each precursor is shown below its corresponding precursor in FIG. 3A and FIG. 3B. Precursor 301 was identified as a lead precursor with a 95±3% inhibition. In some embodiments, one or more of the 2, 3, 5 and/or 6 positions are occupied by an aryl group. Examples of suitable aryl groups include NHPh, OPh or homologs thereof.

[2] = target: T2, active recombinant human cathepsin L (Homo sapiens, UniProt P07711); test: inhibition and inactivation kinetics of cathepsin L, hydrolysis of fluorescent substrate Z-Phe-Arg-(7-Amino-4-methylcoumarin); type: biochemical
T2 construct: active recombinant human cathepsin L
From the text: Based on this initial inhibitory screen compound 100 (FIG. 1), was proposed and successfully synthesized from precursor 301 using a multi-step synthetic methodology (FIG. 4A and FIG. 4B). […] FIG. 5 depicts a progress curve for cathepsin L-catalyzed hydrolysis of fluorescent substrate, Z-Phe-Arg-(7-Amino-4-methylcoumarin) with various concentration of compound 100. […] The dose-dependent progress curves were utilized to obtain the second order cathepsin L inactivation rate constant (kinact). […] The mode of inhibition was irreversible because no significant recovery of enzyme activity could be achieved, even after a very large dilution of inactivated reaction mixture.
(§1) This panel of enzymes included cysteine cathepsins, an aspartyl cathepsin, a serine cathepsin, a cysteine containing enzyme PTP, and a serine protease. The second order inactivation rate constants were thus determined by performing inactivation kinetics under a pseudo-first order condition (Table 1). […] Furthermore, no reactivity was observed against other panel of enzymes (e.g. aspartyl cathepsin D, serine cathepsin G, and a low pKa cysteine containing enzyme hPTP1B, and serine protease trypsin). A remarkable selectivity profile observed for compound 100 in these experiments is noteworthy, and thus is thought to lend itself well for the development of cathepsin L probes.
(§2) Table 1 depicts second order enzyme inactivation rate constants (kinact) of compound 100 against a panel of closely-related enzymes. Relative Selectivity Factor (RSF)=kinact (Cathepsin L)/kinact (other enzyme); NI*=no inhibition at 0.1 mM of compound 100 in 1 h, NA**=Not Applicable.

[3] = target: T3, Cathepsin G (Homo sapiens, UniProt P08311); test: selectivity panel inactivation kinetics, Cathepsin G; type: biochemical; conditions: serine cathepsin G
T3 sequence (P08311 21-244): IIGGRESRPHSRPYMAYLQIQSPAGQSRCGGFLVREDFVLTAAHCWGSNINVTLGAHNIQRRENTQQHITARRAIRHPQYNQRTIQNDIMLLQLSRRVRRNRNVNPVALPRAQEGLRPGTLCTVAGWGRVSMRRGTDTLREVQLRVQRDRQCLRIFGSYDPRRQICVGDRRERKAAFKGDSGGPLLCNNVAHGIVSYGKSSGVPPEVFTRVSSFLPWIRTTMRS
From the text: as §1, §2

[4] = target: Cathepsin S (Homo sapiens, UniProt P25774); test: selectivity panel inactivation kinetics, Cathepsin S; type: biochemical; conditions: kinact (Cathepsin L)/kinact (Cathepsin S); fold
Cathepsin S, sequence (P25774 115-331, species assumed): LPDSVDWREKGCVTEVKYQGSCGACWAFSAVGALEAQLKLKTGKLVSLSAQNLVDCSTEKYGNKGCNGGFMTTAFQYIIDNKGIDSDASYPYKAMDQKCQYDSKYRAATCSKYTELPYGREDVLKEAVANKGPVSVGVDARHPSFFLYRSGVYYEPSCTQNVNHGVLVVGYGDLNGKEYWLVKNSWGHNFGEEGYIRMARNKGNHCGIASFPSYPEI
From the text: as §1, §2

[5] = target: Cathepsin B (Homo sapiens, UniProt P07858); test: selectivity panel inactivation kinetics, Cathepsin B; type: biochemical; conditions: kinact (Cathepsin L)/kinact (Cathepsin B); fold
From the text: as §1, §2

[6] = system: intracellular cathepsin L activity in MDA-MB-231 cells; test: intracellular cathepsin L activity in MDA-MB-231 cells with cell-permeable fluorescent substrate; type: cell-based
From the text: Cell-specific and tissue-specific microenvironments are highly dynamic, and can have a dramatic impact on enzymatic activities and their in vivo function. A direct quantitative reporter of cathepsin L activity in living cancer cells is more desirable for dissecting its role in promoting metastatic cancer. Thus an activity-dependent small molecule probe with desirable cell permeability is urgently needed. […] This cell line is known to overexpress cathepsin L, thereby promoting invasion. A commercial cell-permeable fluorescent substrate of cathepsin L (Enzo LifeSciences, Inc.) was utilized to assess the intracellular inhibitory efficacy of compound 100.
Specifically, the effect of cathepsin L inhibitor 100 on intracellular cathepsin L activity in metastatic breast cancer MDA-MB-231 cell line was examined by fluorescence. Control cells and cells exposed to compound 100 were incubated with (a) vehicle (DMSO 0.05%). The non-control cells were also incubated with compound 100 (750 nM) overnight (22 h). […] Bright-field, fluorescence and merged images were obtained. […] The results are representative of three independent experiments. The effectiveness of cathepsin L inhibitor 100 was also evaluated using a functional wound-healing assay (FIG. 6A to 6F).

[7] = target: T4, hPTP1B (Homo sapiens, UniProt P18031); test: selectivity panel inactivation kinetics, hPTP1B; type: biochemical
T4 sequence (P18031 1-435): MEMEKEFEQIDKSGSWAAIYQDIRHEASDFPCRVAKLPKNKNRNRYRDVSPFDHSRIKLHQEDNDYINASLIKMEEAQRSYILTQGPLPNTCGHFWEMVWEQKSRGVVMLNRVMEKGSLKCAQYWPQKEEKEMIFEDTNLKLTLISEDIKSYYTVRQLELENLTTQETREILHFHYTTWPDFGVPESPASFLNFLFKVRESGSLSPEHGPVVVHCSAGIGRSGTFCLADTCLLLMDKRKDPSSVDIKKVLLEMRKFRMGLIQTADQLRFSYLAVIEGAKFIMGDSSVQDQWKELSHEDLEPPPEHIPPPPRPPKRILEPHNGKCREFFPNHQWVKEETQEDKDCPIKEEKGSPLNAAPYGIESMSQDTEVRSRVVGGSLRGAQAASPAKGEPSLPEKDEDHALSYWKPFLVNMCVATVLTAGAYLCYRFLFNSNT
From the text: as §1, §2

[8] = target: Cathepsin D (Homo sapiens, UniProt P07339); test: selectivity panel inactivation kinetics, Cathepsin D; type: biochemical; conditions: aspartyl cathepsin D
Cathepsin D, sequence (P07339 65-412, species assumed): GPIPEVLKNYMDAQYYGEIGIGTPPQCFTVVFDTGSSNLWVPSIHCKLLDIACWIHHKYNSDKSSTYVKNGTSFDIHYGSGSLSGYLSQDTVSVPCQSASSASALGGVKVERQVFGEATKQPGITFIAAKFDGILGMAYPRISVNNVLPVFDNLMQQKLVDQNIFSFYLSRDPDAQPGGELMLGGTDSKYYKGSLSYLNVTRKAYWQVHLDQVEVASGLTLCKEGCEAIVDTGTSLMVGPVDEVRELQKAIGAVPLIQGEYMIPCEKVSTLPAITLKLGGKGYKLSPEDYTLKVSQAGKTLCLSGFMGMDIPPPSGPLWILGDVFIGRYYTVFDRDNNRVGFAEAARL
From the text: as §1, §2

[9] = system: Trypsin; test: selectivity panel inactivation kinetics, Trypsin; type: biochemical; conditions: serine protease trypsin
From the text: as §1, §2

[10] = target: T5, Cathepsin K (Homo sapiens, UniProt P43235); test: selectivity panel inactivation kinetics, Cathepsin K; type: biochemical; conditions: kinact (Cathepsin L)/kinact (Cathepsin K); fold
T5 sequence (P43235 115-329): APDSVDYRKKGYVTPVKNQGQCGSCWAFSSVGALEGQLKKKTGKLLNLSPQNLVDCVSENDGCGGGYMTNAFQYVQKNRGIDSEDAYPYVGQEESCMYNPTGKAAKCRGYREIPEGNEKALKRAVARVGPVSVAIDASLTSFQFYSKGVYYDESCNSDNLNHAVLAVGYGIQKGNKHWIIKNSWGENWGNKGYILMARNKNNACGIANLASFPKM
From the text: as §1, §2

[11] = system: MDA-MB-231 breast cancer cells; test: wound healing assay, cell migration; type: cell-based; conditions: MDA-MB-231 cells, 750 nM, 0, 7 and 22 hrs
Method: MDA-MB-231 cells were grown in an eight-well glass dish overnight before treating with DMSO (control, 0.05%, FIGS. 6A, 6B and 6C), and compound 100 (750 nM, FIGS. 6D, 6E and 6F). After creating the wounds, images were taken at three different time intervals: t=0 hr (FIG. 6A and FIG. 6D), 7 hrs (FIG. 6B and FIG. 6E), and 22 hrs (FIG. 6C and FIG. 6F). Representative images of three independent experiments are shown. The dotted lines indicate the edge of the wound at time zero, and the arrows indicate the area of wound closure.
FIG. 7 depicts wound closure, a direct measure of cell migratory potential, as calculated using the following equation: % Wound Closure=[(At=0h−At=22h)/At=0h]×100%, where At=0h is the area of the wound measured immediately after the scratch, and At=22h is the area of the wound after 22 hrs. The figure represents a statistical analysis by three independent experiments using the unpaired Student's t test. The data were evaluated as the mean±1 standard deviation. The image analysis were performed by ImageJ software.

Compound `C=CS(=O)(=O)Oc1ccc(Br)cc1` [Precursor 301] has a percent inhibition [1] of 95±3%.

With `CC(C)C[C@@H](/C=C/S(=O)(=O)Oc1ccc(Br)cc1)NC(=O)[C@H](Cc1ccccc1)NC(=O)OCc1ccccc1` [compound 100] the “time to near complete loss of cathepsin L activity” value ([2]; 15 nM compound 100) was “less than 100 s”, the IC50 ([2]; human cathepsin L) was 3.6 ± 0.1 nM and the “RSF (Relative Selectivity Factor)” value ([2]; kinact (Cathepsin L)/kinact (Cathepsin L)) was 1. The mode of inhibition ([2]; no significant recovery of activity after very large dilution) was “irreversible”, the reactivity [3] was “no reactivity” and the “RSF (Relative Selectivity Factor)” value [4] was 13. For the same compound, the “RSF (Relative Selectivity Factor)” value [5] was 44,000, the cell permeability [6] was “cell permeable” and the “intracellular substrate turnover (green fluorescence)” value ([6]; 750 nM, overnight (22 h), compared to control) was “near complete loss of intracellular substrate turnover; also recorded: significant loss of green fluorescent signal intensity”. The reactivity [7] was “no reactivity”, the reactivity [8] was “no reactivity” and the reactivity [9] was “no reactivity”. For the same compound, the “RSF (Relative Selectivity Factor)” value [10] was 100 and the “cell migratory potential (wound closure)” value [11] was “reducing cell migratory potential”.
